# In patent US4551460A, “Pyrido[2,1-b]quinazoline derivatives useful as agents for treatment of allergic conditions and vascular disorders involving thrombosis” (priority 1983, dated 1985):
# Where two headings read alike, the source gives them in different places.
# How the values were obtained:
# [1] = system: leukotriene E (LTE) induced skin wheal formation in rat skin; experiment: LTE-induced skin wheal formation in rat; type: in vivo; settings: rat skin wheal, read-out: ID50 (the source's name)
# Protocol: (a) Methodology for LTE-induced Skin Wheal Formation in Rat. The ability of a drug to inhibit leukotriene E (LTE) induced skin wheal formation in rat skin is measured. In this model system a dose of LTE which gives a maximal wheal response, is injected (in 0.05 ml of saline) intradermally into anesthetized rats which have been pretreated for 30 minutes with 50 mg/kg of pyrilamine maleate and 4 mg/kg of methyl […] maleate (both administered intraperitoneally). The animal is then immediately treated with test drug (at 10 mg/kg, i.v.) followed by an intravenous injection of Evans blue (0.5%) into the tail vein of the animal. Thirty minutes later the animals are sacrificed and the increase in capillary permeability induced by LTE is reflected by the migration of dye into the injection point in the skin (the response being quantitated by the size, in mm, of the dye spot in the skin). The average response in 5 animals (4 intradermal injections of LTE per animal) treated with the test compound is compared with the response elicited in a similar group of animals which were not treated with the drug. For oral studies, the test animals are pretreated two hours prior to intradermal injection of LTE.
# [2] = system: leukotriene E induced bronchoconstriction; experiment: LTE-induced bronchoconstriction in guinea pigs, in vivo (i.v. / oral); set-up: species or system guinea pig (Hartley strain); settings: Cavia porcellus, read-out: ID50 (the source's name)
# [3] = system: leukotriene E induced bronchoconstriction; experiment: Guinea pig bronchoconstriction, in vivo (aerosol); set-up: species or system guinea pig (Hartly strain); settings: aerosol at concentration inhibiting bronchoconstriction by 80%
# Protocol: (c) Guinea Pig Bronchoconstriction, In Vivo (Aerosol):
# Male guinea pigs (Hartly strain) weighing 300 to 500 g are anesthetized with urethane (2 g/kg) intraperitoneally and a polyethylene cannula is inserted into the jugular vein for drug administration. Tracheal pressure is recorded from a cannula inserted in the trachea and connected to a Statham pressure transducer. After surgical preparation of the animals, a period of time is allowed for pulmonary functions to stabilize. The test compound is administered according to the following protocol. Propranolol (0.1 mg/kg) is administered intravenously while the animals breathed spontaneously. Five minutes thereafter, the animals are exposed for a five minute period to a 1% (w/v) aerosol solution of test compound (adjusted to an alkaline pH where necessary for drug solubilization) or to distilled water of the appropriate pH (for control purposes). A Monaghan (Model 750) ultrasonic nebulizer is used to administer all test compounds by inhalation. The nebulizer ultrasonic frequency is adjusted to produce particles in the 1-8μ diameter range (average 3μ). Aqueous solutions are prepared fresh and introduced into the chamber of the nebulizer. The output of the nebulizer is made available to the animal by directing a bias flow of aerosol through a y tube connected to the tracheal cannula. At the end of the exposure period, the animals are paralyzed with succinylcholine (1.2 mg/kg, i.v.) and mechanically respirated (Harvard rodent respirator) at 40 breaths/minute and 2.5 cc tidal volume. Animals are then challenged with a maximum constrictory dose of leukotriene E delivered intravenously 30 seconds after administration of the succinylcholine.
# The change (cm H2 O) between pre and peak ventilatory pressure readings is averaged for three control animals and five drug treated animals. The percent inhibition is calculated from the following formula:
# (Control-Drug Tested/Control)×100
# When various drug concentrations are tested, the percent inhibition at each concentration is plotted as log concentration (abscissa) versus percent inhibition (ordinate) and the IC50 is determined from linear regression analysis.
# In order to determine the aerosol half-life (t 1/2), the animals are prepared as described above, except that the time between aerosol exposure and challenge with leukotriene E is varied. All compounds are administered at the concentration necessary to inhibit leukotriene-induced bronchoconstriction by 80%. Biological half-life is calculated from plots of time (abscissa) versus log percent inhibition (ordinate).
# [4] = system: acetylcholine-induced constriction in guinea pig ilea; experiment: Antagonism of acetylcholine-induced constriction in guinea pig ilea; settings: 5.0×10^-7 M acetylcholine; read-out: IC50 antagonism of acetylcholine-induced constrictions
# Protocol: (e) Antagonism of Acetylcholine-induced Constriction in Guinea Pig Ilea
# Anticholinergic activity was determined on a segment of guinea pig ileum that was suspended in a 37° C. bath of oxygenated Tyrodes solution. At 4 minute intervals, the ileum was challenged with 5.0×10^-7 M acetylcholine for sufficient time to produce a peak contraction and then washed with fresh Tyrodes solution. After the tissue response to acetylcholine had stablized, the ileum was pretreated with the standard anticholinergic, atropine sulfate, for 1 minute prior to rechallenge with acetylcholine, the contraction recorded and the tissue washed with Tyrodes solution. […] The IC50 for atropine was 1×10^-8 M. THe IC50 's for test drugs were determined by this same procedure.
# [5] = system: SRS-A induced contraction of guinea pig ileum; experiment: In vitro SRS-A antagonism; settings: 30 seconds pretreatment
# Protocol: (j) In vitro SRS-A Antagonism
# SRS-A was determined by bioassay on the guinea pig ileum using a modification of the method described by Orange et al., Adv. Immunol., 1969, 10, 105. A 1.5 cm segment of the ileum, obtained from male guinea pigs (175-200 g), was suspended in an organ bath containing Tyrodes solution with 10^-6 M atropine sulfate and 10^-6 M pyrilamine maleate. The bath was maintained at 37° C. and gassed with a mixture of 95 percent oxygen and 5 percent carbon dioxide. The ileum was attached to a strain gauge transducer and isotonic contractions recorded by a strip chart recorder. A resting tension of 0.5 g was applied and the tissue allowed to equilibrate for 1 hour.
# The SRS-A used in these studies was obtained by challenging a large quantity of chopped lung fragments from actively sensitized guinea pigs with egg albumin in vitro. The animals were sensitized to egg albumin by an intraperitoneal injection of the antigen (1 ml of 10 mg/ml) in saline 28 to 45 days prior to challenge. The in vitro challenge was carried out by first preincubating the lung tissue (40 mg/ml) at 37° C. in Tyrodes solution for 5 minutes, adding the egg albumin ([…] final concentration) to the fragments and after a 10 minute challenge, separating the media containing the SRS-A from the lung tissue by filtration on Whatman #1 filter paper. The concentration of SRS-A in the filtrate was calibrated by comparison of the contraction amplitude elicited in the bioassay system by a given volume of the supernatant with contractions obtained by varying concentrations of histamine. One unit of SRS-A is equivalent to that quantity which will give the same contraction as 5 ng of histamine. After standarization, the SRS-A was stored in small aliquots at -80° C. for further use. […] SRS-A antagonism was determined by pretreating the ileum with drug for 30 seconds prior to the addition of a concentration of SRS-A which have a submaximal response, determination of the amplitude of contraction elicited in the presence of drug and then washing the ileum with Tyrodes. […]
# [6] = po, orally (2 hours pretreatment)
SMILES,ED50 ([1]; iv),ED50 ([1]; po),ED50 ([2]; iv),"ED50 [2, 6]",Biological half-life [3],IC50 [4],IC50 [5]
"CC(C)c1ccc2nc3ccc(C(=O)NCCCCn4ccnc4)cn3c(=O)c2c1 [Compound A, N-[4-(1H-imidazol-1-yl)butyl]-2-(1-methylethyl)-11-oxo-11H-pyrido[2,1-b]quinazoline-8-carboxamide]",30 mg/kg,46 mg/kg,0.9 mg/kg,47 mg/kg,56 min,5 µM,1 µM
"CC(C)c1ccc2nc3ccc(C(=O)NCCCCc4cccnc4)cn3c(=O)c2c1 [Compound B, 2-(1-methylethyl)-N-[4-(3-pyridyl)butyl]-11-oxo-11H-pyrido[2,1-b]quinazoline-8-carboxamide]",15 mg/kg,70 mg/kg,0.3 mg/kg,60 mg/kg,7 min,7 µM,1 µM
